{"source": "patent US6482850B2", "about": "“Hydrolysis-promoting hydrophobic taxane derivatives” (priority 1995, dated 2002)", "key": {"[1]": {"system": "A549 human NSCLC", "assay": "i.p. A549 tumor, i.p. treatment, survival", "conditions": "for % ILS / LTS/n / MST Days + SEM / Median survival time: treatment days 1, 3, 5, 7 and 9 i.p.", "procedure": "Note that long-term survivors (mice that survived through day 300 after cell inoculation) were not included in mean, median, or % ILS calculations.\nSCID mice (6/group) were injected with 5×10^6 A549 human NSCLC cells i.p. (day 0)."}, "[2]": {"system": "CDF1 mice", "assay": "In vivo toxicity, i.v. x 5, non-tumor bearing mice", "conditions": "30 days observation", "method": "A separate group (n=5) was injected with concentrations of Cremophor® EL and ethanol (in PBS) equivalent to the highest concentration of the test treatment. Mortality was recorded daily and body weights taken at least twice weekly for an observation period of 30 days."}}, "data": [{"smiles": "CCCCCCCCCCCCCC[C@@H](Br)C(=O)O[C@@H](C(=O)O[C@H]1C[C@@]2(O)[C@@H](OC(=O)c3ccccc3)[C@@H]3[C@]4(OC(C)=O)CO[C@@H]4C[C@H](O)[C@@]3(C)C(=O)[C@H](OC(C)=O)C(=C1C)C2(C)C)[C@@H](NC(=O)c1ccccc1)c1ccccc1", "note": "[BrC16HT, 2′-(R)-[2-bromohexadecanoyl] paclitaxel]", "values": [{"measurement": "survival time of tumor-bearing mice vs. control", "setting": "[1]; i.p. on days 1, 3, 5, 7 & 9", "result": "significantly (p<0.05 vs. control) increased the survival time"}, {"measurement": "% ILS", "setting": "[1]; 25 mg/kg", "result": 247, "unit": "%"}, {"measurement": "LTS/n", "setting": "[1]; 25 mg/kg", "result": "0/6"}, {"measurement": "MST Days + SEM", "setting": "[1]; 25 mg/kg", "result": "117 + 8 Days"}, {"measurement": "Median survival time", "setting": "[1]; 25 mg/kg", "result": 112, "unit": "days"}, {"measurement": "% ILS", "setting": "[1]; 50 mg/kg", "result": 450, "unit": "%"}, {"measurement": "LTS/n", "setting": "[1]; 50 mg/kg", "result": "0/6"}, {"measurement": "MST Days + SEM", "setting": "[1]; 50 mg/kg", "result": "186 + 30 Days"}, {"measurement": "Median survival time", "setting": "[1]; 50 mg/kg", "result": 171, "unit": "days"}, {"measurement": "Number of Mice surviving/Total", "setting": "[2]; i.v. days 1 through 5, 12.5 mg/kg", "result": "10/10"}, {"measurement": "Number of Mice surviving/Total", "setting": "[2]; i.v. days 1 through 5, 25 mg/kg", "result": "9/10"}, {"measurement": "Number of Mice surviving/Total", "setting": "[2]; i.v. days 1 through 5, 37.5 mg/kg", "result": "0/10"}, {"measurement": "Number of Mice surviving/Total", "setting": "[2]; i.v. days 1 through 5, 50 mg/kg", "result": "0/10"}]}]}
